The assay addresses T1, human PAH with the R408W mutation (Homo sapiens, UniProt P00439, R408W).
T1 construct: expressed in transfected cells
T1 sequence (P00439 1-452 R408W): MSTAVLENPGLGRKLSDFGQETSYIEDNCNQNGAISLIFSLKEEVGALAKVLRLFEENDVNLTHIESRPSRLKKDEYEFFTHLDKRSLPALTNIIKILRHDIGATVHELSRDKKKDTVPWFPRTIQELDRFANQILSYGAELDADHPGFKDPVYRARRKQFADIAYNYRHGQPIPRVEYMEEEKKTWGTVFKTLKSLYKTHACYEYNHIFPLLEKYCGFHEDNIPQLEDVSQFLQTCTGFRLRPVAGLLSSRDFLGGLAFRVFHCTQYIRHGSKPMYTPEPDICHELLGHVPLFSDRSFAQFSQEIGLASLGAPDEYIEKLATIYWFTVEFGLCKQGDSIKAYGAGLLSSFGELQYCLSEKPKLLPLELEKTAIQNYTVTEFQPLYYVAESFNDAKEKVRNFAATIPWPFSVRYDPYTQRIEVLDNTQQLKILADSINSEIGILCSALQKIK
The experiment in a line: Cell Based Phenylalanine Flux Assay. The following applies: A375 cells expressing human R408W PAH, 13C-Tyrosine by LC-MS, average where tested multiple times, read-out: AC50.

Like-named read-outs stand apart in the source and are kept apart here. Some results are limits rather than exact numbers.

As a reminder, the AC50 is the concentration giving half of the maximal activity seen. With `CN(C)CCc1nc(C(F)(F)F)c(C(=O)N2CCc3[nH]cnc3[C@H]2c2nc3c(F)cccc3s2)o1` [Example 1675], the AC50 (24 hrs compound incubation) was less than 0.5 µM. Same read-out and setting: to `CC(C)(O)c1ccc2c(C(=O)N3CCc4[nH]cnc4[C@@H]3c3nc4ccccc4s3)cnn2c1` [Example 1474, (R)-(4-(benzo[d]thiazol-2-yl)-6,7-dihydro-1H-imidazo[4,5-c]pyridin-5(4H)-yl)(6-(2-hydroxypropan-2-yl)pyrazolo[1,5-a]pyridin-3-yl)methanone] belongs 1 to 5 µM; to `O=C(c1cnn2ccc(Br)cc12)N1CCc2[nH]cnc2[C@@H]1c1nc2ccc(Br)cc2[nH]1` [Example 998, (R)-(4-(6-bromo-1H-benzo[d]imidazol-2-yl)-6,7-dihydro-1H-imidazo[4,5-c]pyridin-5(4H)-yl)(5-bromopyrazolo[1,5-a]pyridin-3-yl)methanone], greater than 5 µM; to `Cc1nnc(CCC(=O)N2CCc3[nH]cnc3[C@H]2c2nc3ccccc3s2)s1` [Example 1019], 0.5 to 1 µM. As to `O=C(c1ncc(Cl)s1)N1CCc2[nH]cnc2C1c1nc2ccc(F)cc2s1` (centres unmarked), the AC50 (24 hrs with compound) was 1 to 5 µM. Regarding `COc1cccc(CCCC(=O)N2CCc3[nH]cnc3[C@H]2c2nc3ccccc3s2)c1` [Example 1013], the AC50 (24 hrs compound incubation) is 0.5 to 1 µM. For `CC(C)(O)c1nsc(C(=O)N2CCc3[nH]cnc3C2c2nc3c(F)cccc3s2)n1` (centres unmarked), the AC50 (24 hrs with compound) is 1 to 5 µM. Turning to `CC(C)(O)c1ncc(C(=O)N2CCc3[nH]cnc3[C@H]2c2nc3c(F)cccc3s2)s1` [Example 1477, (S)-(4-(4-fluorobenzo[d]thiazol-2-yl)-6,7-dihydro-1H-imidazo[4,5-c]pyridin-5(4H)-yl)(2-(2-hydroxypropan-2-yl)thiazol-5-yl)methanone], the AC50 (24 hrs compound incubation) is less than 0.5 µM.

For the compound `O=C(c1nnc(-c2cnn(CC(F)F)c2)o1)N1CCc2[nH]cnc2[C@H]1c1nc2ccccc2s1` [Example 1871], the AC50 (24 hrs compound incubation) was less than 0.5 µM.

`O=C(c1oc(C2(O)CCC2)nc1C(F)(F)F)N1CCc2[nH]cnc2[C@@H]1c1nc2ccccc2s1` [Example 1566, (R)-(4-(benzo[d]thiazol-2-yl)-6,7-dihydro-1H-imidazo[4,5-c]pyridin-5(4H)-yl)(2-(1-hydroxycyclobutyl)-4-(trifluoromethyl)oxazol-5-yl)methanone]: where the note is “24 hrs compound incubation”, the AC50 was less than 0.5 µM. Consider `CN(C)c1nnc(C(=O)N2CCc3[nH]cnc3[C@H]2c2nc3ccccc3s2)o1` [Example 1609], for which the AC50 (24 hrs compound incubation) is less than 0.5 µM. Take `Cc1nc(-c2ccccn2)oc1C(=O)N1CC(C)c2[nH]cnc2C1c1nc2ccccc2s1` (centres unmarked): for the setting “24 hrs with compound”, the AC50 was greater than 5 µM. Still for that read-out and setting: to `O=C(Cc1coc(C(F)F)n1)N1CCc2[nH]cnc2C1c1nc2ccccc2s1` (centres unmarked) belongs 1 to 5 µM. As for `CC(C)(O)c1cc(C(=O)N2CCc3[nH]cnc3[C@H]2c2nc3c(F)cccc3s2)on1` [Example 2170, (S)-(4-(4-fluorobenzo[d]thiazol-2-yl)-6,7-dihydro-1H-imidazo[4,5-c]pyridin-5(4H)-yl)(3-(2-hydroxypropan-2-yl)isoxazol-5-yl)methanone], under “24 hrs compound incubation”, the AC50 fell in the range of 1 to 5 µM. As to `O=C(c1nccs1)N1CCc2[nH]cnc2[C@@H]1c1nc2ccccc2[nH]1` [Example 902, (R)-(4-(1H-benzo[d]imidazol-2-yl)-6,7-dihydro-1H-imidazo[4,5-c]pyridin-5(4H)-yl)(thiazol-2-yl)methanone], the AC50 (24 hrs compound incubation) is greater than 5 µM.

Consider `O=C(c1scnc1Cl)N1CCc2[nH]cnc2[C@@H]1c1nc2ccc(F)cc2s1` [Example 1141], for which the AC50 (24 hrs compound incubation) was greater than 5 µM. As for `Cn1nc(C(N)=O)cc1C(=O)N1CCc2[nH]cnc2C1c1nc2c(F)cccc2s1` (centres unmarked), where the note is “24 hrs with compound”, the AC50 is greater than 5 µM. On the same count and under the same terms, with `O=C(c1cnn2ccc(F)cc12)N1CCc2[nH]cnc2C1c1nc2ccc(Br)cc2[nH]1` (centres unmarked) the figure was greater than 5 µM.

Consider `Cc1nn(C)c(C)c1-c1ncc(C(=O)N2CCc3[nH]cnc3[C@@H]2c2nc3ccccc3s2)s1` [Example 1406, (R)-(4-(benzo[d]thiazol-2-yl)-6,7-dihydro-1H-imidazo[4,5-c]pyridin-5(4H)-yl)(2-(1,3,5-trimethyl-1H-pyrazol-4-yl)thiazol-5-yl)methanone], for which the AC50 (24 hrs compound incubation) fell in the range of 0.5 to 1 µM. For the compound `COC(=O)N1CC(C(=O)N2CCc3[nH]cnc3[C@@H]2c2nc3c(F)cccc3s2)C1` (single isomer, unassigned), the AC50 (24 hrs with compound) was greater than 5 µM. As to `O=C(CCC1CC1)N1CCc2[nH]cnc2[C@@H]1c1nc2cc(F)ccc2s1` [Example 1076, (R)-3-cyclopropyl-1-(4-(5-fluorobenzo[d]thiazol-2-yl)-6,7-dihydro-1H-imidazo[4,5-c]pyridin-5(4H)-yl)propan-1-one], the AC50 (24 hrs compound incubation) is 1 to 5 µM. As to `O=C(c1ncc[nH]1)N1CCc2[nH]cnc2C1c1nc2ccccc2[nH]1` (centres unmarked), the AC50 (24 hrs with compound) was greater than 5 µM. For `O=C(c1oc(N2CCOCC2)nc1C(F)(F)F)N1CCCc2[nH]cnc2[C@H]1c1nc2ccccc2s1` [Example 2133, (S)-(4-(benzo[d]thiazol-2-yl)-7,8-dihydroimidazo[4,5-c]azepin-5(1H,4H,6H)-yl)(2-morpholino-4-(trifluoromethyl)oxazol-5-yl)methanone], the AC50 (24 hrs compound incubation) lay within 1 to 5 µM. As for `O=C(c1sc(C2CC2)nc1Cl)N1CCc2[nH]cnc2[C@@H]1c1nc2c(F)cccc2s1` [Example 1632, (R)-(4-chloro-2-cyclopropylthiazol-5-yl)(4-(4-fluorobenzo[d]thiazol-2-yl)-6,7-dihydro-1H-imidazo[4,5-c]pyridin-5(4H)-yl)methanone], the AC50 (24 hrs compound incubation) fell in the range of 1 to 5 µM. On the same count and under the same terms, with `Cc1nn2ccccc2c1C(=O)N1CCc2[nH]cnc2[C@H]1c1nc2ccccc2s1` [Example 1165] the figure was less than 0.5 µM; with `Cc1nc(CCCN2CCOCC2)oc1C(=O)N1CCc2[nH]cnc2[C@@H]1c1nc2ccccc2s1` [Example 1702, (R)-(4-(benzo[d]thiazol-2-yl)-6,7-dihydro-1H-imidazo[4,5-c]pyridin-5(4H)-yl)(4-methyl-2-(3-morpholinopropyl)oxazol-5-yl)methanone], greater than 5 µM. With `O=C(c1cnc(C(F)(F)F)o1)N1CCc2[nH]cnc2[C@H]1c1nc2c(F)cccc2s1` [Example 1401, (S)-(4-(4-fluorobenzo[d]thiazol-2-yl)-6,7-dihydro-1H-imidazo[4,5-c]pyridin-5(4H)-yl)(2-(trifluoromethyl)oxazol-5-yl)methanone], the AC50 (24 hrs compound incubation) was less than 0.5 µM. The same measure, in the same setting: with `Cc1nc(C)c(C(=O)N2CCc3[nH]cnc3[C@H]2c2nc3ccccc3s2)s1` [Example 1177] the figure was 0.5 to 1 µM. `O=C(Cc1nccs1)N1CCc2[nH]cnc2C1c1nc2ccc(F)cc2s1` (centres unmarked): under “24 hrs with compound”, the AC50 lay in the range of 1 to 5 µM. Turning to `O=C(c1cnc(-c2cnn(CC(F)(F)F)c2)o1)N1CCc2[nH]cnc2[C@H]1c1nc2ccccc2s1` [Example 1391], the AC50 (24 hrs compound incubation) was less than 0.5 µM. Still for that read-out and setting: to `O=C(c1cnc(N2CCCC2)s1)N1CCc2[nH]cnc2[C@H]1c1nc2ccccc2s1` [Example 1323] belongs less than 0.5 µM. Same read-out and setting: with `Cc1nc(C(C)(C)F)oc1C(=O)N1CCc2[nH]cnc2[C@H]1c1nc2c(F)cccc2s1` [Example 1499, (S)-(4-(4-fluorobenzo[d]thiazol-2-yl)-6,7-dihydro-1H-imidazo[4,5-c]pyridin-5(4H)-yl)(2-(2-fluoropropan-2-yl)-4-methyloxazol-5-yl)methanone] the figure was less than 0.5 µM. Take `O=C(Cc1nccs1)N1CCc2[nH]cnc2C1c1nc2cc(F)ccc2s1` (centres unmarked): where the note is “24 hrs with compound”, the AC50 is greater than 5 µM.

As to `O=C(c1nc(Cl)cs1)N1CCc2[nH]cnc2[C@H]1c1nc2ccccc2[nH]1` [Example 917, (S)-(4-(1H-benzo[d]imidazol-2-yl)-6,7-dihydro-1H-imidazo[4,5-c]pyridin-5(4H)-yl)(4-chlorothiazol-2-yl)methanone], the AC50 (24 hrs compound incubation) was in the range of 0.5 to 1 µM. For the compound `O=C(c1cnn2ccccc12)N1CCc2[nH]cnc2C1c1nc2ccc(Br)cc2s1` (centres unmarked), under “24 hrs with compound”, the AC50 was in the range of 1 to 5 µM. `O=C(CCc1nccs1)N1CCc2[nH]cnc2[C@H]1c1nc(Br)cs1` [Example 2150]: under “24 hrs compound incubation”, the AC50 was in the range of 1 to 5 µM.

As to `Cc1ncoc1C(=O)N1CCCc2[nH]cnc2[C@H]1c1nc2ccccc2s1` [Example 2129, (S)-(4-(benzo[d]thiazol-2-yl)-7,8-dihydroimidazo[4,5-c]azepin-5(1H,4H,6H)-yl)(4-methyloxazol-5-yl)methanone], the AC50 (24 hrs compound incubation) was in the range of 1 to 5 µM. On the same count and under the same terms, to `O=C(c1cnc(-c2cnn(CC(F)(F)F)c2)o1)N1CCc2[nH]cnc2[C@@H]1c1nc2ccccc2s1` [Example 1392, (R)-(4-(benzo[d]thiazol-2-yl)-6,7-dihydro-1H-imidazo[4,5-c]pyridin-5(4H)-yl)(2-(1-(2,2,2-trifluoroethyl)-1H-pyrazol-4-yl)oxazol-5-yl)methanone] belongs 1 to 5 µM; to `O=C(CC1CC1)N1CCc2[nH]cnc2[C@@H]1c1nc2ccc(F)cc2[nH]1` [Example 963, (R)-2-cyclopropyl-1-(4-(6-fluoro-1H-benzo[d]imidazol-2-yl)-6,7-dihydro-1H-imidazo[4,5-c]pyridin-5(4H)-yl)ethanone], 1 to 5 µM; to `O=C(c1cc2cccnn2c1)N1CCc2[nH]cnc2[C@@H]1c1nc2ccccc2s1` [Example 1128, (R)-(4-(benzo[d]thiazol-2-yl)-6,7-dihydro-1H-imidazo[4,5-c]pyridin-5(4H)-yl)(pyrrolo[1,2-b]pyridazin-6-yl)methanone], greater than 5 µM. In the case of `O=C(c1n[nH]c2ccccc12)N1CCc2[nH]cnc2C1c1nc2ccc(F)cc2s1` (centres unmarked), the AC50 (24 hrs with compound) is greater than 5 µM.

The record behind these values is patent US20250171438A1 (Agios Pharmaceuticals, Inc., priority 2022, published 2025).
